Test results from US11357779B2 (G1 Therapeutics, Inc., priority 2018, dated 2022).
Where two headings read alike, the source gives them in different places.

Assay: Noncompartmental pharmacokinetic parameters (Cmax, Tmax, AUC, Racc) in QD and BID cohorts of Form B
Format: in vivo, human
Settings: human, plasma, oral, Compound III
Experimental: Analysis of plasma concentration versus time data for calculation of standard pharmacokinetic (PK) parameters following oral administration was conducted using Phoenix WinNonlin version 6.3 using actual blood sampling times.
The following pharmacokinetic parameters were calculated from the concentration versus time data obtained in Example 1 for each of the above QD (200 mg, 300 mg, 400 mg, 500 mg, or 650 mg dosed) and BID (100 mg, 150 mg, or 200 mg doses) Form B of Compound II dosage cohorts: • Cmax—the observed peak plasma concentration determined from the plasma concentration versus time data obtained on Day 1 and Day 29, as applicable; • Tmax—the time to reach the observed peak plasma concentration from the plasma concentration versus time data obtained on Day 1 and Day 29, as applicable; • AUC—area under the plasma concentration versus time curve during a dosing interval on Day 1 and Day 29, as applicable; and • Racc—accumulation ratio calculated as AUCDay 29/AUCDay 1.

AUC(0-t) (150 mg, 150 mg BID of Form B, Cohort 7, Day 1, read-out: AUClast (Median)): 16.3 ng·h/mL
Cmax (150 mg, 150 mg BID of Form B, Cohort 7, Day 1, read-out: Cmax (Mean)): 3.2 ng/mL
Cmax (150 mg, 150 mg BID of Form B, Cohort 7, Day 1, read-out: Cmax (Median)): 3 ng/mL
Tmax (150 mg, 150 mg BID of Form B, Cohort 7, Day 1, read-out: Tmax (Mean)): 3 h
Tmax (150 mg, 150 mg BID of Form B, Cohort 7, Day 1, read-out: Tmax (Median)): 3 h
AUC(0-t) (150 mg, 150 mg BID of Form B, Cohort 7, Day 29, read-out: AUClast (Mean)): 47.9 ng·h/mL
AUC(0-t) (150 mg, 150 mg BID of Form B, Cohort 7, Day 29, read-out: AUClast (Median)): 23.3 ng·h/mL
Cmax (150 mg, 150 mg BID of Form B, Cohort 7, Day 29, read-out: Cmax (Mean)): 6.23 ng/mL
Cmax (150 mg, 150 mg BID of Form B, Cohort 7, Day 29, read-out: Cmax (Median)): 3.55 ng/mL
Tmax (150 mg, 150 mg BID of Form B, Cohort 7, Day 29, read-out: Tmax (Mean)): 3 h
Tmax (150 mg, 150 mg BID of Form B, Cohort 7, Day 29, read-out: Tmax (Median)): 3 h
AUC(0-t) (200 mg, 200 mg BID of Form B, Cohort 8, Day 1, read-out: AUClast (Mean)): 17.2 ng·h/mL
AUC(0-t) (200 mg, 200 mg BID of Form B, Cohort 8, Day 1, read-out: AUClast (Median)): 18.6 ng·h/mL
Cmax (200 mg, 200 mg BID of Form B, Cohort 8, Day 1, read-out: Cmax (Mean)): 2.87 ng/mL
Cmax (200 mg, 200 mg BID of Form B, Cohort 8, Day 1, read-out: Cmax (Median)): 3 ng/mL
Tmax (200 mg, 200 mg BID of Form B, Cohort 8, Day 1, read-out: Tmax (Mean)): 4.75 h
Tmax (200 mg, 200 mg BID of Form B, Cohort 8, Day 1, read-out: Tmax (Median)): 5 h
AUC(0-t) (200 mg, 200 mg BID of Form B, Cohort 8, Day 29, read-out: AUClast (Mean)): 22 ng·h/mL
AUC(0-t) (200 mg, 200 mg BID of Form B, Cohort 8, Day 29, read-out: AUClast (Median)): 20.1 ng·h/mL
Cmax (200 mg, 200 mg BID of Form B, Cohort 8, Day 29, read-out: Cmax (Mean)): 2.79 ng/mL
Cmax (200 mg, 200 mg BID of Form B, Cohort 8, Day 29, read-out: Cmax (Median)): 2.77 ng/mL
Tmax (200 mg, 200 mg BID of Form B, Cohort 8, Day 29, read-out: Tmax (Mean)): 6.33 h
Tmax (200 mg, 200 mg BID of Form B, Cohort 8, Day 29, read-out: Tmax (Median)): 4 h
AUC(0-t) (200 mg, 200 mg QD of Form B, Cohort 1, Day 1, read-out: AUClast (Mean)): 23.7 ng·h/mL
AUC(0-t) (200 mg, 200 mg QD of Form B, Cohort 1, Day 1, read-out: AUClast (Median)): 21.3 ng·h/mL
Cmax (200 mg, 200 mg QD of Form B, Cohort 1, Day 1, read-out: Cmax (Mean)): 4.18 ng/mL
Cmax (200 mg, 200 mg QD of Form B, Cohort 1, Day 1, read-out: Cmax (Median)): 3.88 ng/mL
Tmax (200 mg, 200 mg QD of Form B, Cohort 1, Day 1, read-out: Tmax (Mean)): 4.17 h
Tmax (200 mg, 200 mg QD of Form B, Cohort 1, Day 1, read-out: Tmax (Median)): 4 h
AUC(0-t) (200 mg, 200 mg QD of Form B, Cohort 1, Day 29, read-out: AUClast (Mean)): 27.9 ng·h/mL
AUC(0-t) (200 mg, 200 mg QD of Form B, Cohort 1, Day 29, read-out: AUClast (Median)): 25.4 ng·h/mL
Cmax (200 mg, 200 mg QD of Form B, Cohort 1, Day 29, read-out: Cmax (Mean)): 3.14 ng/mL
Cmax (200 mg, 200 mg QD of Form B, Cohort 1, Day 29, read-out: Cmax (Median)): 2.52 ng/mL
Tmax (200 mg, 200 mg QD of Form B, Cohort 1, Day 29, read-out: Tmax (Mean)): 4.2 h
Tmax (200 mg, 200 mg QD of Form B, Cohort 1, Day 29, read-out: Tmax (Median)): 4 h
AUC(0-t) (300 mg, 300 mg QD of Form B, Cohort 2, Day 1, read-out: AUClast (Mean)): 43.1 ng·h/mL
AUC(0-t) (300 mg, 300 mg QD of Form B, Cohort 2, Day 1, read-out: AUClast (Median)): 53.1 ng·h/mL
Cmax (300 mg, 300 mg QD of Form B, Cohort 2, Day 1, read-out: Cmax (Mean)): 4.81 ng/mL
Cmax (300 mg, 300 mg QD of Form B, Cohort 2, Day 1, read-out: Cmax (Median)): 6.21 ng/mL
Tmax (300 mg, 300 mg QD of Form B, Cohort 2, Day 1, read-out: Tmax (Mean)): 3.67 h
Tmax (300 mg, 300 mg QD of Form B, Cohort 2, Day 1, read-out: Tmax (Median)): 4 h
AUC(0-t) (300 mg, 300 mg QD of Form B, Cohort 2, Day 29, read-out: AUClast (Mean)): 66.2 ng·h/mL
AUC(0-t) (300 mg, 300 mg QD of Form B, Cohort 2, Day 29, read-out: AUClast (Median)): 56.1 ng·h/mL
Cmax (300 mg, 300 mg QD of Form B, Cohort 2, Day 29, read-out: Cmax (Mean)): 5.44 ng/mL
Cmax (300 mg, 300 mg QD of Form B, Cohort 2, Day 29, read-out: Cmax (Median)): 5.56 ng/mL
Tmax (300 mg, 300 mg QD of Form B, Cohort 2, Day 29, read-out: Tmax (Mean)): 5.33 h
Tmax (300 mg, 300 mg QD of Form B, Cohort 2, Day 29, read-out: Tmax (Median)): 4 h
AUC(0-t) (400 mg, 400 mg QD of Form B, Cohort 3, Day 1, read-out: AUClast (Mean)): 25.6 ng·h/mL
AUC(0-t) (400 mg, 400 mg QD of Form B, Cohort 3, Day 1, read-out: AUClast (Median)): 29.2 ng·h/mL
Cmax (400 mg, 400 mg QD of Form B, Cohort 3, Day 1, read-out: Cmax (Mean)): 4.85 ng/mL
Cmax (400 mg, 400 mg QD of Form B, Cohort 3, Day 1, read-out: Cmax (Median)): 4.66 ng/mL
Tmax (400 mg, 400 mg QD of Form B, Cohort 3, Day 1, read-out: Tmax (Mean)): 4.33 h
Tmax (400 mg, 400 mg QD of Form B, Cohort 3, Day 1, read-out: Tmax (Median)): 6 h
AUC(0-t) (400 mg, 400 mg QD of Form B, Cohort 3, Day 29, read-out: AUClast (Mean)): 42.6 ng·h/mL
AUC(0-t) (400 mg, 400 mg QD of Form B, Cohort 3, Day 29, read-out: AUClast (Median)): 40.9 ng·h/mL
Cmax (400 mg, 400 mg QD of Form B, Cohort 3, Day 29, read-out: Cmax (Mean)): 3.5 ng/mL
Cmax (400 mg, 400 mg QD of Form B, Cohort 3, Day 29, read-out: Cmax (Median)): 3.4 ng/mL
Tmax (400 mg, 400 mg QD of Form B, Cohort 3, Day 29, read-out: Tmax (Mean)): 5.33 h
Tmax (400 mg, 400 mg QD of Form B, Cohort 3, Day 29, read-out: Tmax (Median)): 6 h
AUC(0-t) (500 mg, 500 mg QD of Form B, Cohort 4, Day 1, read-out: AUClast (Mean)): 77.7 ng·h/mL
AUC(0-t) (500 mg, 500 mg QD of Form B, Cohort 4, Day 1, read-out: AUClast (Median)): 79 ng·h/mL
Cmax (500 mg, 500 mg QD of Form B, Cohort 4, Day 1, read-out: Cmax (Mean)): 7.98 ng/mL
Cmax (500 mg, 500 mg QD of Form B, Cohort 4, Day 1, read-out: Cmax (Median)): 8.03 ng/mL
Tmax (500 mg, 500 mg QD of Form B, Cohort 4, Day 1, read-out: Tmax (Mean)): 5.5 h
Tmax (500 mg, 500 mg QD of Form B, Cohort 4, Day 1, read-out: Tmax (Median)): 6 h
AUC(0-t) (500 mg, 500 mg QD of Form B, Cohort 4, Day 29, read-out: AUClast (Mean)): 66.4 ng·h/mL
AUC(0-t) (500 mg, 500 mg QD of Form B, Cohort 4, Day 29, read-out: AUClast (Median)): 69.6 ng·h/mL
Cmax (500 mg, 500 mg QD of Form B, Cohort 4, Day 29, read-out: Cmax (Mean)): 5.98 ng/mL
Cmax (500 mg, 500 mg QD of Form B, Cohort 4, Day 29, read-out: Cmax (Median)): 5.37 ng/mL
Tmax (500 mg, 500 mg QD of Form B, Cohort 4, Day 29, read-out: Tmax (Mean)): 3.67 h
Tmax (500 mg, 500 mg QD of Form B, Cohort 4, Day 29, read-out: Tmax (Median)): 4 h
AUC(0-t) (650 mg, 650 mg QD of Form B, Cohort 5, Day 1, read-out: AUClast (Mean)): 123 ng·h/mL
AUC(0-t) (650 mg, 650 mg QD of Form B, Cohort 5, Day 1, read-out: AUClast (Median)): 125 ng·h/mL
Cmax (650 mg, 650 mg QD of Form B, Cohort 5, Day 1, read-out: Cmax (Mean)): 10.9 ng/mL
Cmax (650 mg, 650 mg QD of Form B, Cohort 5, Day 1, read-out: Cmax (Median)): 10.4 ng/mL
Tmax (650 mg, 650 mg QD of Form B, Cohort 5, Day 1, read-out: Tmax (Mean)): 6.67 h
Tmax (650 mg, 650 mg QD of Form B, Cohort 5, Day 1, read-out: Tmax (Median)): 7 h
AUC(0-t) (650 mg, 650 mg QD of Form B, Cohort 5, Day 29, read-out: AUClast (Mean)): 125 ng·h/mL
AUC(0-t) (650 mg, 650 mg QD of Form B, Cohort 5, Day 29, read-out: AUClast (Median)): 125 ng·h/mL
Cmax (650 mg, 650 mg QD of Form B, Cohort 5, Day 29, read-out: Cmax (Mean)): 8.7 ng/mL
Cmax (650 mg, 650 mg QD of Form B, Cohort 5, Day 29, read-out: Cmax (Median)): 8.7 ng/mL
Tmax (650 mg, 650 mg QD of Form B, Cohort 5, Day 29, read-out: Tmax (Mean)): 7 h
Tmax (650 mg, 650 mg QD of Form B, Cohort 5, Day 29, read-out: Tmax (Median)): 7 h
SMILES: O=C1NCC2(CCCCC2)n2c1cc1cnc(Nc3ccc(N4CCNCC4)cn3)nc12 [Compound III, 2′-((5-(piperazin-1-yl)pyridin-2-yl)amino)-7′,8′-dihydro-6′H-spiro[cyclohexane-1,9′-pyrazino[1′,2′:1,5]pyrrolo[2,3-d]pyrimidin]-6′-one]
